Source: ChEMBL document CHEMBL1129628, “Effect of ring size or an additional heteroatom on the potency and selectivity of bicyclic benzylamine-type inhibitors of phenylethanolamine N-methyltransferase” (J Med Chem, 1996)
pKi: −log10 of the molar value.

Assays:
[1] = target: T1, Adrenergic receptor alpha-2 (Rattus norvegicus, UniProt P22086+P19328+P22909); assay: In vitro for binding affinity against Alpha-2 adrenergic receptor by radioligand [3H]clonidine in rat
T1 sequence (P22086 whole entry): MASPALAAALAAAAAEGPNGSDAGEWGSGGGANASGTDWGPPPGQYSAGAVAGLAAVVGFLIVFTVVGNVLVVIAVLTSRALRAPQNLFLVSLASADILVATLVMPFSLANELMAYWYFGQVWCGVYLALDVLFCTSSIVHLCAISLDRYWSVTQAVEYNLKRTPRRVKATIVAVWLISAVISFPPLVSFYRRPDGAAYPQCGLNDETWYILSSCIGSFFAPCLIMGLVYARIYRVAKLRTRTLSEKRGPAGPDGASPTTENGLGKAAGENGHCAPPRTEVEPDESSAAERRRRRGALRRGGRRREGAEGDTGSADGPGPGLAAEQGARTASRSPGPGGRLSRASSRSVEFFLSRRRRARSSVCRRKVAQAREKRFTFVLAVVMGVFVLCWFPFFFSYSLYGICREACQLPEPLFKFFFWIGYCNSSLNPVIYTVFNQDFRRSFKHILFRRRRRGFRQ
T1 sequence (P19328 whole entry): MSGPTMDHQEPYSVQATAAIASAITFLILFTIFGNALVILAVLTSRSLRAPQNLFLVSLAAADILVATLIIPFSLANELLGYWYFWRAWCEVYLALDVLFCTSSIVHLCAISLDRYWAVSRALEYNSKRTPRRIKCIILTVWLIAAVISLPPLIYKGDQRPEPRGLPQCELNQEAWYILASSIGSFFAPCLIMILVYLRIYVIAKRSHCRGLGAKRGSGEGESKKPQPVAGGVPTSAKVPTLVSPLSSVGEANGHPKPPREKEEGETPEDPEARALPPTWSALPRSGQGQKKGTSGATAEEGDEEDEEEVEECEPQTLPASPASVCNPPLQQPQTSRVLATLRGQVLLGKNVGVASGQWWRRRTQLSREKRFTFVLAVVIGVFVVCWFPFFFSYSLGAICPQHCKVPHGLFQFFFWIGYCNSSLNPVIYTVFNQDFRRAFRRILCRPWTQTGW
T1 sequence (P22909 whole entry): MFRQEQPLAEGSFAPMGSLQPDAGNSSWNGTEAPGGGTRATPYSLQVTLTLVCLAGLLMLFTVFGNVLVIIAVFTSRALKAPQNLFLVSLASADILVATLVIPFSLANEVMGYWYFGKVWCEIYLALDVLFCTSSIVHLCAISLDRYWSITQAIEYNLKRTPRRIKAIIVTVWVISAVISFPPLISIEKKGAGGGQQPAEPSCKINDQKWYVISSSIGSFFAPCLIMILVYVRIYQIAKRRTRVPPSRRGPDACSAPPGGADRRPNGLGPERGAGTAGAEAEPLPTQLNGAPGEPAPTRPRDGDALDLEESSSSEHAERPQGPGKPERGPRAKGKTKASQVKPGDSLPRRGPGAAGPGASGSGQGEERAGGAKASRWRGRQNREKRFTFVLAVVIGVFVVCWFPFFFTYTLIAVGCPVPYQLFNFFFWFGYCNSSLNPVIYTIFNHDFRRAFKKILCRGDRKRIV

[2] = target: T2, Phenylethanolamine N-methyltransferase (Bos taurus, UniProt P10938); assay: In vitro for inhibition of Phenylethanolamine N-Methyltransferase (PNMT)
T2 sequence (P10938 whole entry): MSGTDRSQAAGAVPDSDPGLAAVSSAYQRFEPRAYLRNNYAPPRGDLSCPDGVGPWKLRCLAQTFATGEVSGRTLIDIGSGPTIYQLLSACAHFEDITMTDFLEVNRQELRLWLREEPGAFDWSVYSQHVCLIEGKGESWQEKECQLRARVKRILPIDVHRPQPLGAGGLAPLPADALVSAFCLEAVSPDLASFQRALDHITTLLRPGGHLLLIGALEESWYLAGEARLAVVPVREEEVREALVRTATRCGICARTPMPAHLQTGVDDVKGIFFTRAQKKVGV

[3] = Selectivity ratio between Ki of alpha-2 adrenoceptor and Ki of PNMT

Compound `c1ccc2c(c1)CNCCO2` has a Ki [1] of 4.1 µM, a pKi [2] of 4.67 and a Ratio [3] of 0.19.

Work on `c1ccc2c(c1)CNCCS2` yielded a Ki [1] of 4.6 µM, a pKi [2] of 5.39 and a Ratio [3] of 1.1.

`c1ccc2c(c1)CNC2` gave a Ki [1] of 0.82 µM, a pKi [2] of 3.64 and a Ratio [3] of 0.0035.

For `c1ccc2c(c1)CCNC2` [1,2,3,4-TETRAHYDROISOQUINOLINE], the Ki [1] was […], the pKi [2] was 5.01 and the Ratio [3] was […].

With `C[C@@H]1Cc2ccccc2CN1` the Ki [1] was 6.2 µM, the pKi [2] was 4.42 and the Ratio [3] was 0.16.

Work on `CC1Cc2ccccc2CN1` (racemic) yielded a Ki [1] of 0.84 µM, a pKi [2] of 5.67 and a Ratio [3] of 0.39.

With `c1ccc2c(c1)CCCCNC2` the Ki [1] was 16 µM, the pKi [2] was 4.67 and the Ratio [3] was 0.73.

In the case of `NCc1ccccc1` [BENZYLAMINE], the Ki [1] was 20 µM, the pKi [2] was 3.75 and the Ratio [3] was 0.11.

Work on `C[C@H]1Cc2ccccc2CN1` yielded a Ki [1] of 0.52 µM, a pKi [2] of 6.00 and a Ratio [3] of 0.51.

With `c1ccc2c(c1)CNCCN2` the Ki [1] was 2.6 µM, the pKi [2] was 4.55 and the Ratio [3] was 0.093.

Compound `c1ccc2c(c1)CCCNC2` has a Ki [1] of 11 µM, a pKi [2] of 5.48 and a Ratio [3] of 3.2.
